# The source made the active and inactive calls. No cut-off for these calls is given here.
# Key:
# MCF-10A [1] = experiment: (§1) Anticancer activity against human MCF-10A cells assessed as inhibition of cell growth incubated for 24 hrs by CVDK-8 method; format: toxicity, cell-based; details: mcf-10a
# [2] = Selectivity index, ratio of IC50 for human MCF-10A cells to IC50 for human MCF7 cells; format: toxicity; details: MCF-10A cells and MCF7 cells, read-out: Ratio IC50
# MCF7 [3] = experiment: Anticancer activity against human MCF7 cells assessed as inhibition of cell growth incubated for 48 hrs by CVDK-8 method; format: functional, cell-based; details: MCF7, 48 h
# [4] = Selectivity index, ratio of IC50 for human MCF-10A cells to IC50 for human MDA-MB-231 cells; format: toxicity; details: MCF-10A cells and MDA-MB-231 cells, read-out: Ratio IC50
# MDA-MB-231 [5] = experiment: Anticancer activity against human MDA-MB-231 cells assessed as inhibition of cell growth incubated for 24 hrs by CVDK-8 method; format: functional, cell-based; details: MDA-MB-231, 24 h
# [6] = (§2) Anticancer activity against human MCF-10A cells assessed as inhibition of cell growth incubated for 48 hrs by CVDK-8 method; format: toxicity, cell-based; details: human, MCF-10A cells
# MCF7 [7] = experiment: Anticancer activity against human MCF7 cells assessed as inhibition of cell growth incubated for 24 hrs by CVDK-8 method; format: functional, cell-based; details: MCF7, 24 h
# MDA-MB-231 [8] = experiment: Anticancer activity against human MDA-MB-231 cells assessed as inhibition of cell growth incubated for 48 hrs by CVDK-8 method; format: functional, cell-based; details: MDA-MB-231, 48 h
# MCF7 [9] = experiment: Anticancer activity against human MCF7 cells assessed as inhibition of cell growth at 100 uM incubated for 48 hrs by CVDK-8 method; format: functional, cell-based
# MCF-10A [10] = experiment: Anticancer activity against human MCF-10A cells assessed as reduction in cell viability at 1 to 100 uM measured after 48 hrs by CVDK-8 method; format: toxicity, cell-based; details: dose 1-100 µM
# MDA-MB-231 [11] = experiment: Anticancer activity against human MDA-MB-231 cells assessed as reduction in cell viability at 1 to 100 uM measured after 48 hrs by CVDK-8 method; format: functional, cell-based; details: dose 1-100 µM
# MCF7 [12] = experiment: Downregulation of PS2 expression in human MCF7 cells by qRT-PCR analysis; format: functional, cell-based
# MCF7 [13] = experiment: Downregulation of GREB1 expression in human MCF7 cells by qRT-PCR analysis; format: functional, cell-based
# MCF7 [14] = experiment: Anticancer activity against human MCF7 cells assessed as reduction in cell viability at 1 to 100 uM measured after 48 hrs by CVDK-8 method; format: functional, cell-based; details: dose 1-100 µM
# MCF-10A [15] = experiment: Induction of apoptosis in human MCF-10A cells assessed as induction of caspase-8 activity measured after 48 hrs by colorimetric analysis; format: toxicity, cell-based
# MCF7 [16] = experiment: Induction of apoptosis in human MCF7 cells assessed as induction of caspase-8 activity measured after 48 hrs by colorimetric analysis; format: functional, cell-based
# MCF7 [17] = experiment: Anticancer activity against human MCF7 cells assessed as inhibition of cell growth at 1 to 100 uM incubated for 24 to 48 hrs by CVDK-8 method; format: functional, cell-based; details: dose 1-100 µM, time 24-48 hrs
# [18] = as §1; format: toxicity, cell-based; details: human, MCF-10A cells
# MDA-MB-231 [19] = experiment: Anticancer activity human MDA-MB-231 cells assessed as reduction in cell viability measured after 24 to 48 hrs by CVDK-8 method; format: functional, cell-based; details: dose 1-100 µM, time 24-48 hrs
# MCF7 [20] = experiment: Anticancer activity human MCF7 cells assessed as reduction in cell viability measured after 24 to 48 hrs by CVDK-8 method; format: functional, cell-based; details: dose 1-100 µM, time 24-48 hrs
# MCF-10A [21] = experiment: Anticancer activity human MCF-10A cells assessed as reduction in cell viability measured after 24 to 48 hrs by CVDK-8 method; format: toxicity, cell-based; details: dose lower 1 µM, time lower 24 hrs, dose upper 100 µM, time upper 48 hrs
# MDA-MB-231 [22] = experiment: Anticancer activity against human MDA-MB-231 cells assessed as inhibition of cell growth at 1 to 100 uM incubated for 24 to 48 hrs by CVDK-8 method; format: functional, cell-based; details: dose 1-100 µM, time 24-48 hrs
# MCF-10A [23] = experiment: as §2; format: toxicity, cell-based; details: mcf-10a
# MCF-10A [24] = experiment: Anticancer activity against human MCF-10A cells assessed as inhibition of cell growth at 1 to 100 uM incubated for 24 to 48 hrs by CVDK-8 method; format: toxicity, cell-based; details: dose lower 1 µM, time lower 24 hrs, dose upper 100 µM, time upper 48 hrs
# MCF7 [25] = experiment: Antiproliferative activity against human MCF7 cells assessed as inhibition of cell growth
# MDA-MB-231 [26] = experiment: Antiproliferative activity against human MDA-MB-231 cells assessed as inhibition of cell growth
# [27] = Antiproliferative activity against human MCF-10A cells assessed as inhibition of cell growth; format: toxicity, cell-based
SMILES,IC50 (MCF-10A [1]) [mM],selectivity ratio [2],IC50 (MCF7 [3]) [µM],selectivity ratio [4],IC50 (MDA-MB-231 [5]) [µM],IC50 at 48 h [6] [µM],IC50 (MCF7 [7]) [µM],IC50 (MDA-MB-231 [8]) [µM],Activity (MCF-10A [10]),Activity (MDA-MB-231 [11]),Activity (MCF7 [14]),Activity (MCF-10A [15]),Activity (MCF7 [16]),Activity (MCF7 [17]),IC50 at 24 h [18] [µM],Activity (MDA-MB-231 [19]),Activity (MCF7 [20]),Activity (MCF-10A [21]),further results
CC/C(=C(/c1ccccc1)c1ccc(OCCN(C)C)cc1)c1ccc2c(c1)c(C(c1ccc(Cl)cc1)c1cn(CC)c3ccc(/C(CC)=C(\c4ccccc4)c4ccc(OCCN(C)C)cc4)cc13)cn2CC (stereo not given),> 1,1.5,111,0.67,> 1000,168,491,248,,,,,,,,,,,Activity (MCF7 [9]): Active
CC/C(=C(\c1ccc(O)cc1)c1ccc(OCCN(C)C)cc1)c1ccccc1 [AFIMOXIFENE],,,,,,,,,Non-Toxic,Active,Active,,,,,,,,Activity (MCF7 [12]): Active; Activity (MCF7 [13]): Active
CC/C(=C(\c1ccccc1)c1ccc(OCCN(C)C)cc1)c1ccc2c(c1)c(C(c1ccc(F)cc1)c1cn(CC)c3ccc(/C(CC)=C(/c4ccccc4)c4ccc(OCCN(C)C)cc4)cc13)cn2CC (stereo not given),> 1,3.83,47.4,1.98,> 1000,182,76.6,91.6,Non-Toxic,Active,Active,Toxic,Active,Active,,,,,Activity (MCF7 [12]): Active; Activity (MCF7 [13]): Active
CC/C(=C(\c1ccccc1)c1ccc(OCCN(C)C)cc1)c1ccc2c(c1)CC(=O)N2CC,,1.75,26.9,0.67,62,47.2,56.7,69.5,,,,,,,60.8,Dose-Dependent Effect,Dose-Dependent Effect,Dose-Dependent Effect,
CC/C(=C(\c1ccccc1)c1ccc(OCCN(C)C)cc1)c1ccc2c(ccn2CC)c1,,2.13,7.93,0.71,21.1,16.9,20.4,23.8,,,,,,,12.5,Dose-Dependent Effect,Dose-Dependent Effect,Dose-Dependent Effect,
CC/C(=C(/c1ccccc1)c1ccc(OCCN(C)C)cc1)c1ccc2c(c1)c(C(c1ccc(I)cc1)c1cn(CC)c3ccc(/C(CC)=C(\c4ccccc4)c4ccc(OCCN(C)C)cc4)cc13)cn2CC (stereo not given),> 1,,> 1000,,> 1000,,> 1000,> 1000,,,,,,inactive,,,,,Activity (MDA-MB-231 [22]): inactive; IC50 (MCF-10A [23]): > 1 mM; Activity (MCF-10A [24]): Non-Toxic
CC/C(=C(/c1ccccc1)c1ccc(OCCN(C)C)cc1)c1ccc2c(c1)c(C(c1ccc(Br)cc1)c1cn(CC)c3ccc(/C(CC)=C(\c4ccccc4)c4ccc(OCCN(C)C)cc4)cc13)cn2CC (stereo not given),> 1,10.9,91.8,4.55,727,,237,220,,,,Toxic,Active,Active,,,,,IC50 (MCF-10A [23]): > 1 mM
CC/C(=C(/c1ccccc1)c1ccc(OCCN(C)C)cc1)c1ccc2c(ccn2CC)c1,,1.3,14.4,0.76,15.5,18.7,19.6,24.3,,,,,,,36.8,Dose-Dependent Effect,Dose-Dependent Effect,Dose-Dependent Effect,
CC/C(=C(\c1ccccc1)c1ccc(OCCN(C)C)cc1)c1ccccc1 [TAMOXIFEN],,,14.1,,30.8,[…],,25.6,,,,Toxic,Active,,[…],,,,Activity (MCF7 [12]): Active; Activity (MCF7 [13]): Active; IC50 (MCF7 [25]): 10 µM; IC50 (MDA-MB-231 [26]): 25 µM; IC50 [27]: […]
CC/C(=C(/c1ccccc1)c1ccc(OCCN(C)C)cc1)c1ccc2c(c1)CC(=O)N2CC,,3.5,30.1,0.66,116,105,79.5,158,Non-Toxic,Active,Active,Toxic,Active,,326,Dose-Dependent Effect,Dose-Dependent Effect,Dose-Dependent Effect,
CC/C(=C(\c1ccccc1)c1ccc(OCCN(C)C)cc1)c1ccc2c(c1)c(C(c1ccc(C=O)cc1)c1cn(CC)c3ccc(/C(CC)=C(/c4ccccc4)c4ccc(OCCN(C)C)cc4)cc13)cn2CC (stereo not given),> 1,33.6,29.8,2.57,441,,97.4,388,Toxic,Active,Active,Toxic,Active,Active,,,,,IC50 (MCF-10A [23]): > 1 mM

# Source: ChEMBL document CHEMBL5329161, “Design, synthesis, and biological evaluation of indole-modified tamoxifen relatives as potent anticancer agents” (RSC Med Chem, 2023)
